# In the Bradley open melting point set (2014):
# “And” between values parts separate entries of the source, which are not always exact repeats. Identical values can stand only once.
row,Compound,melting point
1,Cc1ccccc1N [o-toluidine],-24 °C
2,Cc1cc(O)ccc1Br [4-Brom-3-methylphenol],64 °C
3,"C=C1C(=O)C23C(OC(C)=O)CC4C(C)(C)CCC(OC(C)=O)C4(C)C2C(OC(C)=O)CC1C3OC(C)=O (stereo unspecified) [15-oxokaur-16-ene-1,7,11,14-tetrayl tetraacetate]",237 °C
4,CC1(C)[C@H]2CC[C@](C)(C2)[C@H]1O [(1R)-endo-fenchyl alcohol],41 °C
5,"CC1(C)C(=O)NC(=O)N1CO [1-hydroxymethyl-5,5-dimethylhydantoin]",105 °C
6,CCc1nc(N)nc(N)c1-c1ccc(Cl)cc1 [Pyrimethamine],234 °C
7,"O/N=C(/C=C/c1ccccc1)c1ccccc1 [2-Propen-1-one, 1,3-diphenyl-, oxime, (E,Z)-]",116 °C
8,Nc1ccc(I)cn1 [2-amino-5-iodopyridine],128 °C
9,CC(=O)Oc1ccc2c3c1O[C@H]1[C@@H](OC(C)=O)C=C[C@H]4[C@@H](C2)N(C)CC[C@@]341 [heroin],173 °C
10,CCOC(=O)c1cc(C)[nH]n1 [Ethyl 5-methyl-1H-pyrazole-3-carboxylate],87 °C
11,"CC(C)(C)c1ccc(O)c(C(C)(C)C)c1 [2,4-di-tert-butylphenol]",55 °C
12,"Cc1cccc(C)c1N [2,6-dimethylaniline]",12 °C
13,CC(=O)Nc1ccccc1 [acetanilide],114 °C
14,Nc1ncnc(Nc2ccc(Cl)cc2)n1 [chlorazanil],233 °C
15,C#C[C@]1(O)CC[C@H]2[C@@H]3CCC4=CC(=O)CC[C@@H]4[C@H]3CC[C@@]21CC [Levonorgestrel],236 °C
16,Cc1ccc2cc3c(ccc4ccccc43)c3c2c1CC3 [3-methylcholanthrene],180 °C
17,"N[C@@H](Cc1ccc(F)c(F)c1)C(=O)O (racemic) [3,4-difluoro-dl-phenylalanine]",233 °C
18,O=C(O)c1cccc(Cl)c1[N+](=O)[O-] [3-chloro-2-nitrobenzoic acid],237 °C
19,"O=C1CCC(C(=O)O)=NN1 [1,4,5,6-tetrahydro-6-oxopyridazine-3-carboxylic acid]",197 °C
20,"CC(O)CO (stereo unspecified) [1,2-propanediol]",-60 °C
21,OC[C@H]1O[C@H](O)[C@H](O)[C@@H](O)[C@@H]1O [glucose],150 °C and 146 °C (3×) and 147 °C
22,O=C(c1ccccc1)N(O)c1ccccc1 [N-benzoyl-N-phenylhydroxylamine],119 °C
23,ClC1/C=C\C2C3(Cl)C(\Cl)=C(\Cl)C(Cl)(C12)C3(Cl)Cl (stereo unspecified) [heptachlor],95 °C and 95.5 °C
24,COC(=O)c1ccc(C=O)cc1 [Methyl 4-formylbenzoate],61 °C
25,"Cn1c(Cl)cc(=O)n(C)c1=O [6-chloro-1,3-dimethyluracil]",110 °C
26,Cc1ccc(-n2c(C)cc(C=O)c2C)cc1 [OSM-S-29],110 °C

row,Compound,melting point
1,O=C(C(=O)c1ccccc1)c1ccccc1 [Benzil],94.5 °C
2,O=S(=O)(c1ccc(Cl)cc1)c1ccc(Cl)cc1 [bis(4-chlorophenyl) sulfone],149 °C
3,CCCCC(CC)C(=O)O (stereo unspecified) [2-ethylhexanoic acid],-59 °C
4,"CC(Br)CCCBr (stereo unspecified) [1,4-dibromopentane]",-34 °C
5,OC[C@@H](O)[C@H](O)[C@@H](O)CO [D-Xylitol],104 °C
6,O=C(O)c1ccccc1N=Nc1ccc(O)cc1 [2-(p-hydroxyphenylazo)benzoic acid],206 °C
7,N#Cc1c(O)cccc1F [2-fluoro-6-hydroxybenzonitrile],156 °C
8,CCCCCCCCCC [decane],-30 °C and -29.8 °C
9,O=C(O)Cc1cccc(C(F)(F)F)c1 [3-(trifluoromethyl)phenylacetic acid],78 °C
10,CCOC(=O)C(NC=O)C(=O)OCC [diethyl formamidomalonate],53 °C
11,Cc1c[nH]c2ccccc12 [3-methylindole],96 °C
12,NC(=O)c1ccccc1O [salicylamide],140 °C
13,NNC(=O)c1ccncc1 [Isoniazid],171 °C
14,COc1ccccc1N1CCNCC1 [1-(2-methoxyphenyl)piperazine],37 °C
15,c1ccc2nc3ccccc3nc2c1 [Phenazine],158 °C
16,CN(C)c1ccncc1 [4-(dimethylamino)pyridine],112 °C
17,CCOC(=O)Cn1cnc2ncnc(Cl)c21 [Ethyl (6-chloro-7H-purin-7-yl)acetate],108 °C
18,Sc1nc2ccccc2o1 [2-mercaptobenzoxazole],192 °C
19,"COc1cc(C(=O)NN)cc(OC)c1O [3,5-dimethoxy-4-hydroxybenzhydrazide]",156 °C
20,Cc1nnc2n1-c1ccc(Cl)cc1C(c1ccccc1Cl)=NC2 [Triazolam],234 °C
21,c1ccc2c(c1)Oc1ccccc1S2 [phenoxathiin],57 °C
22,Cc1ccc(F)c(C=O)c1Cl [2-chloro-6-fluoro-3-methylbenzaldehyde],27 °C
23,CCCCc1c2c(cc3c1-c1ccccc1OC3)CC(C)(C)CC2=O,87 °C
24,CC1CCc2cc(F)cc3c(=O)c(C(=O)O)cn1c23 (stereo unspecified) [flumequine],253 °C
25,CCc1ccc(O)cc1 [4-ethylphenol],47 °C
